pEC50: −log10 of the molar value. Calls of active or inactive are those of the source. The calls are words filed in the database; no cut-off is given here.
Experiments:
[1] = molecular target: T1, Trace amine-associated receptor 1 (Homo sapiens) (UniProt Q96RJ0); assay: Agonist activity at human TAAR1 extracted from CHO-K1 cell membrane coexpressing AGTRL1/Gi by measuring maximum efficacy at 0 to 100 uM by cAMP assay relative to control; type: functional, cell membranes; settings: dose 0-100 µM
T1 sequence (whole entry): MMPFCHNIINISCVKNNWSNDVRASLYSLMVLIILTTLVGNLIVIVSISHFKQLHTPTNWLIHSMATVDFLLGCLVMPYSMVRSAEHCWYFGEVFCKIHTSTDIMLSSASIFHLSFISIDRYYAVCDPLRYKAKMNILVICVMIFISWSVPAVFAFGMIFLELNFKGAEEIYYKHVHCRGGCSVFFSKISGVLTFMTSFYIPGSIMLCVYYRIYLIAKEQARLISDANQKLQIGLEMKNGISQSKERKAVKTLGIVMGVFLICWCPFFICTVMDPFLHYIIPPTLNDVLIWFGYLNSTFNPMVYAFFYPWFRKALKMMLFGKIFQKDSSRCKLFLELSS

Mus musculus [2] = assay: Antipsychotic activity against MK-801 induced hypermobilization in male C57BL/6J mouse model assessed as reduction in hypermobilization state at 3 mg/kg, IG pretreated with compound followed by MK-801 addition and measured after 30 mins by open field test; type: functional, organism-based
[3] = molecular target: T2, 5-hydroxytryptamine receptor 2C (Homo sapiens) (UniProt P28335); assay: Partial agonist activity at recombinant human 5-HT2CR expressed in HEK293 cells incubated for 2 hrs by measuring maximum efficacy by FLIPR calcium assay relative to control; type: functional, cell-based; settings: filed as partial agonist
T2 sequence (whole entry): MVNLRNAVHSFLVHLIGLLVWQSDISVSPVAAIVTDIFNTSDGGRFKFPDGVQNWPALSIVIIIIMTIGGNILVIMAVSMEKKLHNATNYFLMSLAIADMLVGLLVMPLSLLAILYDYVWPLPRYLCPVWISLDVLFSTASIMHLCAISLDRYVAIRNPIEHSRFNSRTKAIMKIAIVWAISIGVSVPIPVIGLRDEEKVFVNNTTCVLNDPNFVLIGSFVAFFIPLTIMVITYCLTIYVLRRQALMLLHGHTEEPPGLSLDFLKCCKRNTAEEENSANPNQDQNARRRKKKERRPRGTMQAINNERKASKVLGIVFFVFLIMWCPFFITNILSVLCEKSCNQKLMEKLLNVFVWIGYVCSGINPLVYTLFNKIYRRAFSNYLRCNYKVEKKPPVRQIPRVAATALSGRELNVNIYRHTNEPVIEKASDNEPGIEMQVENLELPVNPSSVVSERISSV

[4] = molecular target: T3, Trace amine-associated receptor 1 (Homo sapiens, UniProt Q96RJ0); assay: Agonist activity at human TAAR1 extracted from CHO-K1 cell membrane coexpressing AGTRL1/Gi by cAMP assay; type: functional, cell membranes
T3 sequence (Q96RJ0 whole entry): T1 sequence (whole entry)

Mus musculus [5] = assay: Antipsychotic activity in amyloid beta (1 to 42) induced hyperlocomotion in mouse model assessed as decrease in total distance traveled at 10 mg/kg by open field test; type: functional, organism-based
Mus musculus [6] = assay: Antipsychotic activity against DOI-induced head-twitch response in mouse assessed as reduction in head-twitch response at 10 mg/kg, IG measured for 30 mins; type: functional, organism-based
Mus musculus [7] = assay: Antipsychotic activity in amyloid beta(1 to 42) induced cognitive impairment in mouse model assessed as increase in discrimination ratio of novel objects at 1 mg/kg, IG measured after 24 hrs by novel object recognition test; type: functional, organism-based
Mus musculus [8] = assay: Antipsychotic activity in amyloid beta(1 to 42) induced cognitive impairment in mouse model assessed as reduction in exploration time at 1 mg/kg, IG measured after 24 hrs by novel object recognition test; type: functional, organism-based
Mus musculus [9] = assay: Antidepressant activity in chronic social defeat stress induced depressive C57BL/6J mouse model assessed as increase in time of interaction zone at 10 mg/kg, IG measured after 15 mins by open field test; type: functional, organism-based
[10] = molecular target: 5-hydroxytryptamine receptor 2C (Rattus norvegicus) (UniProt P08909); assay: Agonist activity at rat 5-HT2CR by measuring maximum efficacy relative to control; type: functional; settings: filed as agonist
Chain of 5-hydroxytryptamine receptor 2C (Rattus norvegicus) (P08909 whole entry): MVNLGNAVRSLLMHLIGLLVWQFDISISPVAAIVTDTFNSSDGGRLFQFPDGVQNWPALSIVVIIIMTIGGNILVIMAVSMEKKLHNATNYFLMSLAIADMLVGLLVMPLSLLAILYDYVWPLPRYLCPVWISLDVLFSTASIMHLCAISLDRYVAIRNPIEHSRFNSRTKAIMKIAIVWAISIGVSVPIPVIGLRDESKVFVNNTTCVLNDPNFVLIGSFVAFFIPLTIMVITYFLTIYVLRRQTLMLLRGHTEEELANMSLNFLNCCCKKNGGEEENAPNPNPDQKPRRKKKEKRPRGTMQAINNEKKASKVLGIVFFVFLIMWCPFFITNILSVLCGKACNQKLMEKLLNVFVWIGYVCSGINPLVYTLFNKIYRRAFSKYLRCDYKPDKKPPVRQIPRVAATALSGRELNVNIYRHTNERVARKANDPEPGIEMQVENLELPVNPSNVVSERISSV

[11] = molecular target: Trace amine-associated receptor 1 (Rattus norvegicus, UniProt Q923Y9); assay: Agonist activity at rat TAAR1; type: functional
Chain of Trace amine-associated receptor 1 (Rattus norvegicus, UniProt Q923Y9) (Q923Y9 whole entry): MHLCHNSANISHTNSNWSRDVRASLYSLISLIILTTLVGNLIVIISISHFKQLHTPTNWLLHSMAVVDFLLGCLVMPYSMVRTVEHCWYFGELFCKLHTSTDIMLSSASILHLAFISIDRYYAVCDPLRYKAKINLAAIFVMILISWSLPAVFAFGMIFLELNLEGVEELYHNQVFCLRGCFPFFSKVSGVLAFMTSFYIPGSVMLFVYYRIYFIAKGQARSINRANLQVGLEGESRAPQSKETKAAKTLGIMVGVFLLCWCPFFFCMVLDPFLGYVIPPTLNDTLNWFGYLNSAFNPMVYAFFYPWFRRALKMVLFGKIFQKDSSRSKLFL

[12] = molecular target: Trace amine-associated receptor 1 (Mus musculus, UniProt Q923Y8); assay: Agonist activity at mouse TAAR1; type: functional
Chain of Trace amine-associated receptor 1 (Mus musculus, UniProt Q923Y8) (Q923Y8 whole entry): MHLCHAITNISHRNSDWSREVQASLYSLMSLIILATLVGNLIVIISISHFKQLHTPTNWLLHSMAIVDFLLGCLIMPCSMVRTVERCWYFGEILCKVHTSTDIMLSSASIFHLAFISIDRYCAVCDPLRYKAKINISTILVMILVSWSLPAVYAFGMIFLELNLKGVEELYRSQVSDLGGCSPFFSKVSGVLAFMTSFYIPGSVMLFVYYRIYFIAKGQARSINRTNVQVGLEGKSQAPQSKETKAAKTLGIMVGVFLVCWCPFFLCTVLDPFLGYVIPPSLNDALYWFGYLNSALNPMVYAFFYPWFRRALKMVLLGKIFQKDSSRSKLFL

[13] = molecular target: Trace amine-associated receptor 1 (Rattus norvegicus) (UniProt Q923Y9); assay: Agonist activity at rat TAAR1 by measuring maximum efficacy relative to control; type: functional; settings: filed as agonist
Chain of Trace amine-associated receptor 1 (Rattus norvegicus) (Q923Y9 whole entry): as the sequence (Q923Y9 whole entry) above

[14] = molecular target: Trace amine-associated receptor 1 (Mus musculus) (UniProt Q923Y8); assay: Agonist activity at mouse TAAR1 by measuring maximum efficacy relative to control; type: functional; settings: filed as agonist
Chain of Trace amine-associated receptor 1 (Mus musculus) (Q923Y8 whole entry): as the sequence (Q923Y8 whole entry) above

[15] = molecular target: T4, 5-hydroxytryptamine receptor 2C (Homo sapiens, UniProt P28335); assay: Agonist activity at recombinant human 5-HT2CR expressed in HEK293 cells incubated for 2 hrs by FLIPR calcium assay; type: functional, cell-based
T4 sequence (P28335 whole entry): T2 sequence (whole entry)

Mus musculus [16] = species on record: Mus musculus; assay: Antipsychotic activity against MK-801 induced hyperlocomotion in male C57BL/6J mouse model assessed as effective dose; type: functional
[17] = molecular target: T2, 5-hydroxytryptamine receptor 2C (Homo sapiens); assay: Agonist activity at recombinant human 5-HT2CR expressed in HEK293 cells incubated for 2 hrs by measuring maximum efficacy by FLIPR calcium assay relative to control; type: functional, cell-based

Compound	Emax ([1]; filed as agonist)	pEC50 [4]	also measured
CNCC1NCCc2ccsc21 (stereo in doubt; 17b) [listing 1 of 2 here]	61.2%		
COc1ccsc1C1CNCCO1 (stereo in doubt; 25a)	94.1%		Activity (Mus musculus [2]): Active; Similar Effect Compared To Ulotaront; Emax [3]: 68.3%
CNCC1NCCc2ccsc21 (stereo in doubt; 17b) [listing 2 of 2 here]		5.10	
COc1ccc(C2CNCCO2)s1 (stereo in doubt; 27b) [listing 1 of 2 here]		5.80	
c1cc(C2CC2)c(C2CNCCO2)s1 (racemic)	98.6%		
CNCC1OC(C)(C)Cc2ccsc21 (racemic)	99.6%		
c1csc(C2CNCO2)c1 (racemic)	97%	5.19	
CC(=O)c1ccsc1C1CNCCO1 (stereo in doubt; 36a) [listing 1 of 2 here]			Emax [1]: 2.04%
c1ccc2sc(C3CNCCO3)cc2c1 (racemic)	72.1%	5.36	
CNCC1NCCc2ccsc21 (stereo in doubt; 17a) [listing 1 of 2 here]			Emax [1]: 33.8%
CC(C)Oc1ccsc1C1CNCCO1 (racemic)		< 4.00	Emax [1]: 18.1%
COc1csc(C2CNCCO2)c1 (stereo in doubt; 26b) [listing 1 of 2 here]		5.67	
c1cc2c(o1)C1CNCCN1CC2 (stereo in doubt; 22a) [listing 1 of 2 here]		7.44	
CC(=O)c1ccsc1C1CNCCO1 (stereo in doubt; 36b) [listing 1 of 2 here]		4.82	
COc1csc(C2CNCCO2)c1 (stereo in doubt; 26a) [listing 1 of 2 here]	63.8%		
FCCOc1ccsc1C1CNCCO1 (racemic)	46.7%		
CCCN1CCc2ccsc2C1CN (stereo in doubt; 19b) [listing 1 of 2 here]			Emax [1]: 34.3%
CNCC1SCCc2ccsc21 (stereo in doubt; 16a) [listing 1 of 2 here]			Emax [1]: 37.4%
c1cc2c(s1)CCN1CCNCC21 (stereo in doubt; 23b) [listing 1 of 2 here]		5.99	
CC1(c2cccs2)CNCCO1 (racemic)	92.6%	4.68	
CCCN1CCc2ccsc2C1CN (stereo in doubt; 19a) [listing 1 of 2 here]			Emax [1]: 35.7%
FC(F)(F)COc1ccsc1C1CNCCO1 (racemic)	97.7%		

Compound	Emax ([1]; filed as agonist)	pEC50 [4]	also measured
COc1ccc(C2CNCCO2)s1 (stereo in doubt; 27b) [listing 2 of 2 here]	96.9%		
CCCCCN1CCc2ccsc2C1CN (stereo in doubt; 20a) [listing 1 of 2 here]		< 4.52	
OCC1OCCc2ccsc21 (stereo in doubt; 15a) [listing 1 of 2 here]			Emax [1]: 1.94%
OCC1OCCc2ccsc21 (stereo in doubt; 15b)			Emax [1]: 2.72%
OCC1OCCc2ccsc21 (stereo in doubt; 15a) [listing 2 of 2 here]		< 4.00	
COc1csc(C2CNCCO2)c1 (stereo in doubt; 26b) [listing 2 of 2 here]	85.6%		
c1cc2c(o1)C1CNCCN1CC2 (stereo in doubt; 22b) [listing 1 of 2 here]		6.11	
CNCC1OCCc2ccoc21 (racemic)	105%		
CC(=O)c1ccsc1C1CNCCO1 (stereo in doubt; 36a) [listing 2 of 2 here]		< 4.00	
CCCCCN1CCc2ccsc2C1CN (stereo in doubt; 20a) [listing 2 of 2 here]			Emax [1]: 0%
Fc1csc(C2CNCCO2)c1 (racemic)	107%		
CCCN1CCc2ccsc2C1CN (stereo in doubt; 19b) [listing 2 of 2 here]		5.16	
CN1CCc2ccsc2C1CN (stereo in doubt; 18a) [listing 1 of 2 here]		< 4.00	
CNCC1SCCc2ccsc21 (stereo in doubt; 16b) [listing 1 of 2 here]	74.6%		
CN1CCc2ccsc2C1CN (stereo in doubt; 18a) [listing 2 of 2 here]			Emax [1]: 18.9%
COc1ccc(C2CNCCO2)s1 (stereo in doubt; 27a) [listing 1 of 2 here]	69%		
O=c1ccc2ccc(OCCCCN3CCN(c4cccc5sccc45)CC3)cc2[nH]1			Activity (Mus musculus [5]): Active; Activity (Mus musculus [6]): Active; Activity (Mus musculus [7]): inactive; Activity (Mus musculus [8]): Active
CNCC1OC(COC)Cc2ccsc21 (racemic)	64%	4.42	
CC(=O)c1ccsc1C1CNCCO1 (stereo in doubt; 36b) [listing 2 of 2 here]	41.7%		
Cc1cc2c(s1)Nc1ccccc1N=C2N1CCN(C)CC1			Activity (Mus musculus [9]): Active
CNCC1SCCc2ccsc21 (stereo in doubt; 16a) [listing 2 of 2 here]		4.68	
CNCC1NCCc2ccsc21 (stereo in doubt; 17a) [listing 2 of 2 here]		4.38	

Compound	Emax ([1]; filed as agonist)	pEC50 [4]	also measured
NCCc1c[nH]c2ccc(O)cc12			Emax [10]: 102%
Fc1ccc(C2CNCCO2)s1 (racemic)	80.8%		
NCCc1ccc(O)cc1 [TYRAMINE]	103%	6.03	pEC50 [11]: 6.64; pEC50 [12]: 6.07; Emax [13]: 99%; Emax [14]: 103%
c1cc2c(o1)C1CNCCN1CC2 (stereo in doubt; 22b) [listing 2 of 2 here]	94.3%		
CCCCCN1CCc2ccsc2C1CN (stereo in doubt; 20b)			Emax [1]: 15.6%
CNCC1SCCc2ccsc21 (stereo in doubt; 16b) [listing 2 of 2 here]		6.28	
COc1ccc(C2CNCCO2)s1 (stereo in doubt; 27a) [listing 2 of 2 here]		4.43	
c1cc2c(o1)C1CNCCN1CC2 (stereo in doubt; 22a) [listing 2 of 2 here]	95.6%		
CNCC1OCC(C)(C)c2ccsc21 (racemic)	53.3%	4.62	
c1cc2c(s1)CCN1CCNCC21 (stereo in doubt; 23b) [listing 2 of 2 here]	77%		
COc1ccccc1C1CNCCO1 (racemic)	79%	5.86	
COc1ccsc1C1CNCCO1 (stereo in doubt; 25b)	76.4%		
CCCN1CCc2ccsc2C1CN (stereo in doubt; 19a) [listing 2 of 2 here]		5.10	
CCc1[nH]nc(C(=O)Nc2ccc([C@H]3CNCCO3)cc2)c1C [RALMITARONT]	66%		pEC50 [15]: < 4.00; ED50 (Mus musculus [16]): < 400 mg/kg; Emax [17]: 0.13%
c1csc([C@@H]2CNCCO2)c1	80.1%		pEC50 [15]: 5.46; Emax ([17]; filed as agonist): 101%
FC(F)COc1ccsc1C1CNCCO1 (racemic)	75.2%	4.49	
c1cc2c(s1)CCN1CCNCC21 (stereo in doubt; 23a) [listing 1 of 2 here]		4.85	
c1ccc2c(c1)CCN1CCNCC21 (racemic) [AZAQUINZOLE]		4.38	Emax [1]: 37.2%
c1cc2c(s1)CCN1CCNCC21 (stereo in doubt; 23a) [listing 2 of 2 here]	51%		
Fc1ccsc1C1CNCCO1 (racemic)	100%	6.60	
COc1csc(C2CNCCO2)c1 (stereo in doubt; 26a) [listing 2 of 2 here]		4.63	
CN1CCc2ccsc2C1CN (stereo in doubt; 18b)	96.5%		

— ChEMBL document CHEMBL6109139, “Rational Design of the First Dual Agonist at Trace Amine-Associated Receptor 1 and 5-HT2C Receptors Based on Binding Pocket Similarity for the Treatment of Schizophrenia and Alzheimer's Disease-Related Psychosis” (J Med Chem, 2025)
